Source: ChEMBL document CHEMBL5113380, “Functionalized quinoxalinones as privileged structures with broad-ranging pharmacological activities” (Eur J Med Chem, 2022)
≈ marks a conversion by molar mass, not a printed value. Values belong to the compound of their own block, whether it stands above or below them.

Columns and labels:
[1] = Inhibition of palmitate-induced lipid accumulation in human HepG2 cells relative to control; format: functional
[2] = molecular target: T1, Alpha amylase (Homo sapiens, UniProt P0DUB6); experiment: Inhibition of alpha-amylase (unknown origin)
T1 sequence (P0DUB6 whole entry): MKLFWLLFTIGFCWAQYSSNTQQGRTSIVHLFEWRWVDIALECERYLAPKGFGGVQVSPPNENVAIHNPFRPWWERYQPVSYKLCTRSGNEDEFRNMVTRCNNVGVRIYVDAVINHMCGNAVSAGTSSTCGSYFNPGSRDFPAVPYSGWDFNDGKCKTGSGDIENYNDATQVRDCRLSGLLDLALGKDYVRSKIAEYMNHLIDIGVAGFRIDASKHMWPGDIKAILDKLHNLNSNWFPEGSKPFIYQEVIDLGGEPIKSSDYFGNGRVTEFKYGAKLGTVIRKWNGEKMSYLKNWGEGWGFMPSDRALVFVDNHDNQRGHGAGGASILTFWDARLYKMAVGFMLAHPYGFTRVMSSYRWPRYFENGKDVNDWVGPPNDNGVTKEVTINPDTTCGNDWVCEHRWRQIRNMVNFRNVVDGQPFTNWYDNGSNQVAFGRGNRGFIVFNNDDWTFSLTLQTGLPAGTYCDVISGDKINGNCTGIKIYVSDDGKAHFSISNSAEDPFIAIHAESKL

[3] = molecular target: Prostaglandin G/H synthase 1 (Homo sapiens, UniProt P23219)
Sequence of Prostaglandin G/H synthase 1 (P23219 whole entry): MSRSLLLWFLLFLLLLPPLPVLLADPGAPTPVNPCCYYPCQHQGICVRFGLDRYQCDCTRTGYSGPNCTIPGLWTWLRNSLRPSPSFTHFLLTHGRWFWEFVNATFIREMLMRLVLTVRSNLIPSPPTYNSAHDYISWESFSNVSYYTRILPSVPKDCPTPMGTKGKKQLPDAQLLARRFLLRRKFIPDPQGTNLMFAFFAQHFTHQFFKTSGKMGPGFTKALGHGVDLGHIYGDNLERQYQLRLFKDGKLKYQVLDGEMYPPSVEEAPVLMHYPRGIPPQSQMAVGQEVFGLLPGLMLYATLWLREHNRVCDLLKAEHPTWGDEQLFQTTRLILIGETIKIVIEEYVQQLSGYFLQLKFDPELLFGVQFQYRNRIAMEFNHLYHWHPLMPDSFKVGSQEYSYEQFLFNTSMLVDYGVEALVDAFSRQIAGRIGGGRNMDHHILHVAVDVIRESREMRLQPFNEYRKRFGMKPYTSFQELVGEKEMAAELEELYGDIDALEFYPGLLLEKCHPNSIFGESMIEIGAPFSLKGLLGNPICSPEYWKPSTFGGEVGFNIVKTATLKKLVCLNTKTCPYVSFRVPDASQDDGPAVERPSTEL

[4] = species: Homo sapiens; experiment: Inhibition of human TRK relative to control; set-up: concentration or dose not given beside the values; details: concentration not given here
[5] = molecular target: T2, Glutamate receptor ionotropic AMPA (Homo sapiens, UniProt P42261+P42262+P42263+P48058); experiment: Displacement of [3H]kainate from AMPA receptor (unknown origin); format: protein-complex assay
[6] = molecular target: T2, Glutamate receptor ionotropic AMPA; experiment: Displacement of [3H]AMPA from AMPA receptor (unknown origin); format: protein-complex assay
[7] = Displacement of [3H]glycine from AMPA receptor (unknown origin); format: protein-complex assay, Homo sapiens
[8] = molecular target: Human immunodeficiency virus type 1 reverse transcriptase (Human immunodeficiency virus 1) (UniProt Q72547); experiment: Inhibition of HIV1 reverse transcriptase at 10 uM relative to control
[9] = molecular target: Human immunodeficiency virus type 1 reverse transcriptase (Human immunodeficiency virus 1) (UniProt Q72547); experiment: Inhibition of HIV1 reverse transcriptase at 100 uM relative to control
[10] = molecular target: Human immunodeficiency virus type 1 reverse transcriptase (Human immunodeficiency virus 1, UniProt Q72547); experiment: Inhibition of HIV1 reverse transcriptase
[11] = Antioxidant activity assessed as DPPH radical scavenging activity; format: functional; details: read-out: IC50
[12] = Antioxidant activity assessed as DPPH radical scavenging activity at 50 uM; format: functional
[13] = Antioxidant activity assessed as DPPH radical scavenging activity at 100 uM; format: functional
[14] = Antioxidant activity assessed as DPPH radical scavenging activity at 10 uM; format: functional
[15] = Inhibition of ALR2 (unknown origin); set-up: species or system Homo sapiens
[16] = Inhibition of ALR1 (unknown origin) relative to control; set-up: concentration or dose not given beside the values; details: Homo sapiens; concentration not given here
[17] = molecular target: Glutamate receptor ionotropic, kainate 2 (Homo sapiens, UniProt Q13002); experiment: Binding affinity to GluK2 receptor (unknown origin)
Sequence of Glutamate receptor ionotropic, kainate 2 (Q13002 whole entry): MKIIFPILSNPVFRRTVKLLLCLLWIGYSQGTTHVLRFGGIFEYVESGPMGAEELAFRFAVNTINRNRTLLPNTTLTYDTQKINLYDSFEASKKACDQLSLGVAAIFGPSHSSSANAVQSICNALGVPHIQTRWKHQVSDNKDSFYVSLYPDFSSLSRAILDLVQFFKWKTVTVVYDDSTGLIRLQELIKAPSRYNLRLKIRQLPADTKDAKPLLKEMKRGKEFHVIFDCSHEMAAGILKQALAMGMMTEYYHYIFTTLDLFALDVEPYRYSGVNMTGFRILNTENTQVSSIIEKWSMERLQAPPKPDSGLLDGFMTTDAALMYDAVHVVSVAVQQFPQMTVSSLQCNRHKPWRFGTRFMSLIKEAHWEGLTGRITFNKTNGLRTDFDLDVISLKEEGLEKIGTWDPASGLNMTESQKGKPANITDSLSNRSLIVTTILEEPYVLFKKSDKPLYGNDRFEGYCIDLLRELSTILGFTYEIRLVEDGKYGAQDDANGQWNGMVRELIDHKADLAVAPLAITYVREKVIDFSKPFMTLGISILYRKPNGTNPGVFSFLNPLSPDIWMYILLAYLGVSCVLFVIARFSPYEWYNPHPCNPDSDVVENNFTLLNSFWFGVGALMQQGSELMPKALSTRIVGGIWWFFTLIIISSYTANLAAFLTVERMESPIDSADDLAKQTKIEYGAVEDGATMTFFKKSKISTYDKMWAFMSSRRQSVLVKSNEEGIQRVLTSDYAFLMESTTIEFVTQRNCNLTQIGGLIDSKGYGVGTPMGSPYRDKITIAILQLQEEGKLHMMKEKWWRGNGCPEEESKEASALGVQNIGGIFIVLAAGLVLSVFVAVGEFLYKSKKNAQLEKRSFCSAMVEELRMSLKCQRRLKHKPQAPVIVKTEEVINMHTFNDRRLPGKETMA

[18] = molecular target: Glutamate receptor ionotropic, kainate 1 (Homo sapiens, UniProt P39086); experiment: Binding affinity to GluK1 receptor (unknown origin)
Sequence of Glutamate receptor ionotropic, kainate 1 (P39086 whole entry): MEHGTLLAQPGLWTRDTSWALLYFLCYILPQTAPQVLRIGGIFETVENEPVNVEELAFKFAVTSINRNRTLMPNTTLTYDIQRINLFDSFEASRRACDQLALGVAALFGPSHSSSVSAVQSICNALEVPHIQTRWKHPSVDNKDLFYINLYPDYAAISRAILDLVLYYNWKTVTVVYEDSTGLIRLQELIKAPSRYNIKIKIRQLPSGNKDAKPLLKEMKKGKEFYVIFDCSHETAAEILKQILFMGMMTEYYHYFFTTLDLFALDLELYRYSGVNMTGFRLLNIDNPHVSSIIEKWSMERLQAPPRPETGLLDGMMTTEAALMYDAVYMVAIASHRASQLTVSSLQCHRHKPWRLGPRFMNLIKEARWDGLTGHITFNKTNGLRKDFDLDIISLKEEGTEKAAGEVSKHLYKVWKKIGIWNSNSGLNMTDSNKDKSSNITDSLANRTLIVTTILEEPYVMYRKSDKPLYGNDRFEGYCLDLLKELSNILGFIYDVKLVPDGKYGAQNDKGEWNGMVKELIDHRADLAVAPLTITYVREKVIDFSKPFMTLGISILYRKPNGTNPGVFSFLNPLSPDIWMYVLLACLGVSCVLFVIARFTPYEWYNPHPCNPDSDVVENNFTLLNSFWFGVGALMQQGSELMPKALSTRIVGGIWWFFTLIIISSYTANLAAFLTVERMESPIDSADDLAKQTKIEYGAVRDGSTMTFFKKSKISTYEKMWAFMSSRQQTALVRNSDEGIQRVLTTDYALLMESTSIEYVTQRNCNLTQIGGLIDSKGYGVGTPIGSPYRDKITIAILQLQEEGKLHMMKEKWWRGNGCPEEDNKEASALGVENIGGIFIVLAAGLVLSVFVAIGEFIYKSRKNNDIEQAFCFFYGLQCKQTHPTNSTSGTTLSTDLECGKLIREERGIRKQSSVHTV

[19] = molecular target: T2, Glutamate receptor ionotropic AMPA; experiment: Binding affinity to AMPA receptor (unknown origin); format: protein-complex assay
[20] = Binding affinity to KA receptor (unknown origin); set-up: species or system Homo sapiens
[21] = molecular target: Glutamate [NMDA] receptor; experiment: Binding affinity to NMDA receptor (unknown origin); format: protein-complex assay, Homo sapiens
[22] = molecular target: Glutamate [NMDA] receptor; experiment: Displacement of [3H]glycine from NMDA receptor (unknown origin); format: protein-complex assay, Homo sapiens
[23] = tested on: Pichia kudriavzevii; experiment: Antifungal activity against Candida krusei; format: functional
[24] = tested on: Nakaseomyces glabratus; experiment: Antifungal activity against Candida glabrata; format: functional
[25] = tested on: Candida; experiment: Antifungal activity against Candida species isolate 3; format: functional
[26] = tested on: Candida tropicalis; experiment: Antifungal activity against Candida tropicalis; format: functional
[27] = tested on: Candida albicans; experiment: Antifungal activity against Candida albicans; format: functional
[28] = tested on: Candida; experiment: Antifungal activity against Candida species isolate 1; format: functional
[29] = tested on: Staphylococcus aureus; experiment: Antibacterial activity against Staphylococcus aureus; format: functional
[30] = tested on: Candida parapsilosis; experiment: Antifungal activity against Candida parapsilosis; format: functional; details: Lodderomyces parapsilosis
[31] = molecular target: Glutamate receptor 2 (Homo sapiens, UniProt P42262); experiment: Binding affinity to GluA2 receptor (unknown origin)
Sequence of Glutamate receptor 2 (P42262 whole entry): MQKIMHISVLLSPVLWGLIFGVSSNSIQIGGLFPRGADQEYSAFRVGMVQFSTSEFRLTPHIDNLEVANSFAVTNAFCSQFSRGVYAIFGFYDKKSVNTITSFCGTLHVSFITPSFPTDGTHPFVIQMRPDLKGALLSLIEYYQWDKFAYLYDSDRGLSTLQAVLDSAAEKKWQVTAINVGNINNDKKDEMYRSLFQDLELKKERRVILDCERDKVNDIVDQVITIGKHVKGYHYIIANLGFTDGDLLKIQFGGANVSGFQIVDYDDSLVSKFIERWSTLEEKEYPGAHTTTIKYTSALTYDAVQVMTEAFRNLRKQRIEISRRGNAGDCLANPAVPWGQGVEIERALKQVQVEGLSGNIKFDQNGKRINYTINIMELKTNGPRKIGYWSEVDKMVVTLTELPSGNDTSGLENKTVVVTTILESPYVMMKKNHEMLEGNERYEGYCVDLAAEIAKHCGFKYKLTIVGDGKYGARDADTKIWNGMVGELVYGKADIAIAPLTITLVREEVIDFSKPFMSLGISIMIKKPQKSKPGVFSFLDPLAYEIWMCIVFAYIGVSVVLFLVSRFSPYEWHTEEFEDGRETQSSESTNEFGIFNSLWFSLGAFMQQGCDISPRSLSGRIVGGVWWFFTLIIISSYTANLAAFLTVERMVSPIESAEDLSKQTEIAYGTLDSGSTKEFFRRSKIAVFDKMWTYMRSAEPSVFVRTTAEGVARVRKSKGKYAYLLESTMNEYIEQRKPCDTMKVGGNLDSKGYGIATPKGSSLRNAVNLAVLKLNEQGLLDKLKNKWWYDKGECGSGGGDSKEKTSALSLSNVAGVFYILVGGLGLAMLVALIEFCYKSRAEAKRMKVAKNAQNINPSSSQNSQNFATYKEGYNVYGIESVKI

- IC50 [5]: 0.43 µM
- IC50 [6]: 2.5 µM
- IC50 [7]: > 10 µM
SMILES: CCC(C)N1CCc2c(Br)cc3nc(O)c(O)nc3c2C1 (stereo unspecified)

- IC50 [11]: 78.9 µM
- IC50 [15]: 0.107 µM
- inhibition [16]: 34.3%
SMILES: O=c1c(/C=C/c2ccc(O)cc2)nc2ccc(F)cc2n1-c1cnn(O)c1
- Activity [12]: 31.5%
- Activity [13]: 65.3%
- Activity [14]: 18.7%

- IC50 [11]: 24.1 µM
- IC50 [15]: 0.419 µM
- inhibition [16]: 32.6%
SMILES: COc1cc(/C=C/c2nc3ccccc3n(CC(=O)O)c2=O)ccc1O
- Activity [12]: 68.8%
- Activity [13]: 95.4%
- Activity [14]: 39.6%

- IC50 [11]: 20.9 µM
- IC50 [15]: 0.148 µM
- inhibition [16]: 30.5%
SMILES: O=c1c(/C=C/c2ccc(O)c(O)c2)nc2ccccc2n1-c1cnn(O)c1
- Activity [12]: 72.5%
- Activity [13]: 95.6%
- Activity [14]: 40.8%

- IC50 [15]: 0.032 µM
- inhibition [16]: 46.2%
SMILES: O=C(O)Cn1c(=O)c(-c2ccc(O)cc2O)nc2ccc(F)cc21
- Activity [13]: 9.1%

- IC50 [22]: 0.63 µM
- IC50 [6]: 4.69 µM
SMILES: Oc1nc2cc(Cl)c(Cl)cc2n2cnnc12

- IC50 [5]: 2.9 µM
- IC50 [6]: > 100 µM
- IC50 [7]: > 100 µM
SMILES: CCC(C)CN1CCc2c(Br)cc3nc(O)c(O)nc3c2C1 (stereo unspecified)

- IC50 [22]: 1.26 µM
- IC50 [6]: 7.38 µM
SMILES: Oc1nc2cc(Cl)c(Cl)cc2n2ccnc12

- IC50 [15]: 0.102 µM
- inhibition [16]: 42.1%
SMILES: O=C(O)Cn1c(=O)c(/C=C/c2ccc(O)c(O)c2)nc2ccc(O)cc21
- Activity [12]: 82.1%
- Activity [13]: 96.2%
- Activity [14]: 70.5%

- Ki [22]: 5.28 µM
- Ki [6]: 1.21 µM
SMILES: Cc1cc2[nH]c(=O)c(=O)n(CP(=O)(O)O)c2cc1C

- IC50 [22]: 3.92 µM
SMILES: CCCc1nnc2c(O)nc3cc(Cl)c(Cl)cc3n12

The next lines start with the compound.

SMILES: Cc1cccc2c1NC(=O)CN2
- inhibition (INH) [1]: 50%

SMILES: COc1cccc(/C=N/Nc2nc3ccccc3[nH]c2=O)c1
- IC50 [2]: 492.68 µM

SMILES: Cc1nn(-c2ccccc2)c(Cl)c1/C=N/Nc1nc2ccccc2[nH]c1=O
- IC50 [3]: > 50 µM
- inhibition [4]: 34%

SMILES: CC(C)COC(=O)N1c2ccccc2NC(=O)[C@H]1CC(C)C
- inhibition [8]: 22%
- inhibition [9]: 51%
- IC50 [10]: 67 µM

SMILES: Cc1nn(-c2ccccc2)c(N2CCN(S(=O)(=O)c3ccccc3)CC2)c1/C=N/Nc1nc2ccccc2nc1O
- inhibition [4]: 12%

SMILES: CC(C)Cc1nc2ccccc2[nH]c1=O
- inhibition [8]: 15%
- inhibition [9]: 73%
- IC50 [10]: 23 µM

SMILES: COC(=O)c1sccc1S(=O)(=O)N1c2cc(Cl)ccc2NC(=O)C1C (stereo unspecified)
- IC50 [10]: 0.2 µM

SMILES: O=c1[nH]c2ccc(CCP(=O)(O)O)cc2[nH]c1=O
- Ki [17]: > 100 µM
- Ki [18]: > 100 µM
- IC50 [19]: > 100 µM
- IC50 [20]: > 100 µM
- Ki [21]: 56 µM

SMILES: O=c1[nH]c2cc(-n3ccnc3)c([N+](=O)[O-])cc2[nH]c1=O [YM-90K]
- Ki [5]: 2.2 µM
- Ki [6]: 0.084 µM
- Ki [7]: 37 µM

SMILES: O=C(O)c1ccccc1/C=C/c1ccc2[nH]c(=O)c(=O)[nH]c2c1
- Ki [17]: 2.5 µM
- Ki [18]: 1.4 µM
- IC50 [19]: 0.48 µM
- IC50 [20]: 24 µM
- Ki [21]: > 100 µM

SMILES: O=c1[nH]c2cc(C(F)(F)F)ccc2nc1CBr
- MIC [23]: 125 µg/mL (≈ 407 µM)
- MIC [24]: > 125 µg/mL
- MIC [25]: < 3.5 µg/mL
- MIC [26]: 125 µg/mL (≈ 407 µM)
- MIC [27]: > 125 µg/mL
- MIC [28]: 62.5 µg/mL (≈ 204 µM)
- MIC [29]: 62.5 µg/mL (≈ 204 µM)
- MIC [30]: > 125 µg/mL

SMILES: Cc1ccc2c(c1)N[C@@H](C)C(=O)N2
- inhibition (INH) [1]: 50%

SMILES: Cc1ccc2c(c1)N[C@H](C)C(=O)N2
- inhibition (INH) [1]: 50%

SMILES: Cc1nn(-c2ccccc2)c(N2CCN(C)CC2)c1/C=N/Nc1nc2ccccc2nc1O
- IC50 [3]: > 50 µM
- inhibition [4]: 83%

SMILES: Cc1cccc2c1NCCN2
- inhibition (INH) [1]: 30%

SMILES: O=C(O)c1cc(-c2ccc3[nH]c(=O)c(=O)[nH]c3c2)ccc1Cl
- Ki [17]: 33 µM
- Ki [18]: 1.2 µM
- Ki [31]: > 100 µM
- IC50 [19]: 24 µM
- IC50 [20]: 57 µM
- Ki [21]: > 100 µM

SMILES: CN1CCc2c(c([N+](=O)[O-])cc3[nH]c(=O)c(=O)[nH]c23)C1
- IC50 [5]: 0.38 µM
- IC50 [6]: 0.29 µM
- IC50 [7]: 4.9 µM
